# Measurements: patent US6153634A, “4,5-azolo-oxindoles” (Hoffmann-La Roche Inc., priority 1999, dated 2000)
# Experiments:
# [1] = biological target: T1, human Cyclin E/CDK2 (Homo sapiens, UniProt P24941); assay: CDK2 FlashPlate Assay (inhibition of Rb phosphorylation); format: biochemical; settings: Cyclin E/CDK2, Rb-coated FlashPlates; for inhibition at 0.5 µM: Concentration 0.5 μM
# T1 construct: made in house; host or cells: insect cells
# Protocol: To determine inhibition of CDK2 activity, purified recombinant retinoblastoma (Rb) protein was coated on 96 well FlashPlates (New England Nuclear, Boston, Mass.). Rb is a natural substrate for phosphorylation by CDK2 (Herwig and Strauss Eurr. J. Biochem., Vol. 246 (1997) pp. 581-601 and references therein). Recombinant active human Cyclin E/CDK2 complexes were partially purified from extracts of insect cells. The active Cyclin E/CDK2 was added to the Rb-coated FlashPlates along with ^33 P-ATP and dilutions of test compounds. Plates were incubated for 25 minutes at room temperature with shaking, then washed and counted in the Topcount scintillation counter (Packard Instrument Co., Downers Grove, Ill.). Dilutions of test compounds were tested in duplicate in each assay. The percent inhibition of Rb phosphorylation, which is a measure of the inhibition of CDK2 activity, was determined according to the following formula: [formula] where "test compound" refers to the average counts per minute of the test duplicates, "nonspecific" refers to the average counts per minute when no Cyclin E/CDK2 was added, and "total" refers to the average counts per minute when no compound was added.
# [2] = test system: MDA-MB-435; assay: Cell-based antiproliferative (MTT) assay, MDA-MB-435 breast carcinoma; settings: Homo sapiens, MDA-MB-435, 120 h, cell line MDA-MB435 (breast), 5 days post addition, one experiment mostly, average where repeated
# Protocol: The estrogen receptor negative epithelial breast carcinoma line (MDA-MB-435) was purchased from American Type Cell Culture Collection (ATCC; Rockville, Md.) and was grown in the medium recommended by ATCC. For analysis of the effect of the test compounds on growth of these cells, the cells were plated at 2000 cells per well in a 96-well tissue culture plate, and were incubated overnight at 37° C. with 5% CO2. The next day, the test compounds were dissolved in 100% dimethyl sulfoxide (DMSO) to yield a 10 mM stock solution. Each compound was diluted with sterile medium to 1 mM in a sufficient quantity to yield a final concentration of 120 μM. The compounds were then serially diluted in medium with 1.2% DMSO. […] The plates were returned to the incubator, and 5 days post addition of test compound, were analyzed as described below. […] Absorbencies were read in a microtiter plate reader (Molecular Dynamics) at a wavelength of 570 nm with a 650 nm reference. Percent inhibition was calculated by subtracting the absorbance of the blank (no cell) wells from all wells, then subtracting the division of the average absorbance of each test duplicate by the average of the controls from 1.00. Inhibitory concentrations (IC50) were determined from the linear regression of a plot of the logarithm of the concentration versus the percent inhibition.
inhibition at 0.5 µM [1] [%],SMILES,other results
< 50,"COc1cc[nH]c1/C=C1\C(=O)Nc2ccc3[nH]c(NCc4cccc5ccccc45)nc3c21 [WW, (Z)-8-[(3-Methoxy-1H-pyrrol-2-yl)methylene]-2-[N-(1-naphthalenyl)methylamino]-3,6,7,8-tetrahydro-pyrrolo[3,2-e]benzimidazol-7-one]",–
< 50,"COc1cc[nH]c1/C=C1\C(=O)Nc2ccc3[nH]c(NCCCc4ccccc4)nc3c21 [XX, (Z)-8-[(3-Methoxy-1H-pyrrol-2-yl)methylene]-2-[N-(3-phenylpropyl)amino]-3,6,7,8-tetrahydro-pyrrolo[3,2-e]benzimidazol-7-one]",–
> 50,"COc1cc[nH]c1/C=C1\C(=O)Nc2ccc3[nH]c(Nc4cccc5ccccc45)nc3c21 [MM, (Z)-8-[(3-Methoxy-1H-pyrrol-2-yl)methylene]-2-[N-(1-naphthyl)amino]-3,6,7,8-tetrahydro-pyrrolo[3,2-e]benzimidazol-7-one]",–
> 50,"CCOC(=O)CCCNc1nc2c3c(ccc2[nH]1)NC(=O)/C3=C\c1[nH]ccc1OC [LL, (Z)-4-[[8-[(3-Methoxy-1H-pyrrol-2-yl)methylene]-7-oxo-3,6,7,8-tetrahydro-imidazo[4,5-e]indol-2-yl]amino]-butanoic acid ethyl ester]",–
< 50,"COc1ccccc1Nc1nc2c3c(ccc2[nH]1)NC(=O)/C3=C\c1[nH]ccc1OC [II, (Z)-2-[N-(2-Methoxyphenyl)amino]-8-[(3-methoxy-1H-pyrrol-2-yl)methylene]-3,6,7,8-tetrahydro-pyrrolo[3,2-e]benzimidazol-7-one]",–
> 50,"COc1cc[nH]c1/C=C1\C(=O)Nc2ccc3[nH]c(NCc4ccc(F)cc4)nc3c21 [FF, (Z)-2-[N-[(4-Fluorophenyl)methyl]amino]-8-[(3-methoxy-1H-pyrrol-2-yl)methylene]-3,6,7,8-tetrahydro-pyrrolo[3,2-e]benzimidazol-7-one]",–
< 50,"COc1ccc(CCNc2nc3c4c(ccc3[nH]2)NC(=O)/C4=C\c2[nH]ccc2OC)cc1OC [GG, (Z)-2-[N-[2-(3,4-Dimethoxyphenyl)ethyl]amino]-8-[(3-methoxy-1H-pyrrol-2-yl)methylene]-3,6,7,8-tetrahydro-pyrrolo[3,2-e]benzimidazol-7-one]",–
< 50,"COc1cc[nH]c1/C=C1\C(=O)Nc2ccc3[nH]c(NCCCCc4ccccc4)nc3c21 [JJ, (Z)-8-[(3-Methoxy-1H-pyrrol-2-yl)methylene]-2-[N-(4-phenylbutyl)amino]-3,6,7,8-tetrahydro-pyrrolo[3,2-e]benzimidazol-7-one]",–

# The remaining lines, values behind:
SMILES,inhibition at 0.5 µM [1] [%],other results
"COc1cc[nH]c1/C=C1\C(=O)Nc2ccc3[nH]c(Nc4ccc5c(c4)CCC5)nc3c21 [YY, (Z)-2-[N-(2,3-Dihydro-1H-inden-5-yl)amino]-8-[(3-methoxy-1H-pyrrol-2-yl)methylene]-3,6,7,8-tetrahydro-pyrrolo[3,2-e]benzimidazol-7-one]",< 50,–
"COC(=O)c1ccc(Nc2nc3c4c(ccc3[nH]2)NC(=O)/C4=C\c2[nH]ccc2OC)cc1 [EE, (Z)-4-[[8-[(3-Methoxy-1H-pyrrol-2-yl)methylene]-7-oxo-3,6,7,8-tetrahydro-imidazo[4,5-e]indol-2-yl]amino]-benzoic acid methyl ester]",< 50,–
"CCOC(=O)c1ccc(Nc2nc3c4c(ccc3[nH]2)NC(=O)/C4=C\c2[nH]ccc2OC)cc1 [CC, (Z)-4-[[8-[(3-Methoxy-1H-pyrrol-2-yl)methylene]-7-oxo-3,6,7,8-tetrahydro-imidazo[4,5-e]indol-2-yl]amino]-benzoic acid ethyl ester]",< 50,–
"Cc1nc[nH]c1/C=C1\C(=O)Nc2ccc3[nH]cnc3c21 [SS, (Z)-8-[(4-Methyl-1H-imidazol-5-yl)methylene]-3,6,7,8-tetrahydro-pyrrolo[3,2-e]benzimidazol-7-one]",–,IC50 [2]: < 3.5 µM
COc1cc[nH]c1/C=C1\C(=O)Nc2ccc3[nH]c(-c4ccc(C(=O)O)cc4)nc3c21 [R],–,"IC50 ([1]; 33P-ATP, 25 min room temperature): < 3.5 µM"
"COc1cc[nH]c1/C=C1\C(=O)Nc2ccc3[nH]c(NCc4ccc5c(c4)OCO5)nc3c21 [VV, (Z)-2-[N-(1,3-Benzodioxol-5-yl)methylamino]-8-[(3-methoxy-1H-pyrrol-2-yl)methylene]-3,6,7,8-tetrahydro-pyrrolo[3,2-e]benzimidazol-7-one]",< 50,–
"COc1cc[nH]c1/C=C1\C(=O)Nc2ccc3[nH]c(NCCN4CCCCC4)nc3c21 [NN, (Z)-8-[(3-Methoxy-1H-pyrrol-2-yl)methylene]-2-[N-[2-(N-piperidinyl)ethyl]-amino]-3,6,7,8-tetrahydro-pyrrolo[3,2-e]benzimidazol-7-one]",> 50,–
"COc1cc[nH]c1/C=C1\C(=O)Nc2ccc3[nH]c(Nc4cccc(C(C)=O)c4)nc3c21 [BB, (Z)-2-[N-(3-Acetylphenyl)amino]-8-[(3-methoxy-1H-pyrrol-2-yl)methylene]-3,6,7,8-tetrahydro-pyrrolo[3,2-e]benzimidazol-7-one]",< 50,–
"COc1cc[nH]c1/C=C1\C(=O)Nc2ccc([N+](=O)[O-])c(N=[N+]=[N-])c21 [M, (Z)-4-Azido-1,3-dihydro-3-[(3-methoxy-1H-pyrrol-2-yl)methylene]-5-nitro-2H-indol-2-one]",> 50,–
"COc1ccc(Nc2nc3c4c(ccc3[nH]2)NC(=O)/C4=C\c2[nH]ccc2OC)cc1 [Z, (Z)-2-[N-(4-Methoxyphenyl)amino]-8-[(3-methoxy-1H-pyrrol-2-yl)methylene]-3,6,7,8-tetrahydro-pyrrolo[3,2-e]benzimidazol-7-one]",< 50,–
"COc1ccc(Nc2nc3c4c(ccc3[nH]2)NC(=O)/C4=C\c2[nH]ccc2OC)cc1OC [Y, (Z)-2-[N-(3,4-Dimethoxyphenyl)amino]-8-[(3-methoxy-1H-pyrrol-2-yl)methylene]-3,6,7,8-tetrahydro-pyrrolo[3,2-e]benzimidazol-7-one]",< 50,–
